Measured values taken from patent US6498159B1, “Phthalazine derivatives and remedies for erectile dysfunction” (Eisai Co., Ltd., priority 1998, dated 2002).
Where a name gives a salt, the structure may show the parent alone.

Molecular target: PDE5 (Sus scrofa, UniProt A0A287B475)
Assay: Inhibitory action on the enzyme cGMP-PDE obtained from porcine platelets
Assay type: biochemical
Conditions: 1 μM cGMP substrate, 1 mM EGTA, read-out: PDE 5 IC50
Procedure: 1) Inhibitory Action on the Enzyme cGMP-PDE Obtained from Porcine Platelets
The inhibitory activity of a test compound on the enzyme cGMP-PDE prepared from porcine platelets was determined by adding a solution of the test compound dissolved in DMSO to a reaction solution, where 1 μM cGMP was used as the substrate in the presence of 1 mM EGTA in accordance with a method of Tompson et al. The final concentration of DMSO in the reaction solution was 1% or less. Preparation of cGMP-PDE was conducted as follows. Porcine platelets were added to buffer A (20 mM Tris/HCl, 2 mM magnesium acetate, 10 mM 2-mercaptoethanol, 0.1 mM EGTA; pH 7.4), and then sonicated. The resulting suspension was centrifuged at 100,000×g for 60 min, and the resulting supernatant was subjected to a column (DEAE-Toyopearl 650S produced by Tosoh, Tokyo, Japan). After the column was washed with buffer A, the enzyme was eluted with a gradient of from 0.075 to 0.25 M NaCl in buffer A to give a CGMP-PDE fraction. The resulting fraction was dialyzed, concentrated and stored.

SMILES | IC50 [nM]
COc1ccc(CNc2nnc(N(C)Cc3ccccn3)c3ccc(C#N)cc23)cc1Cl [Production Example 7, 4-(3-Chloro-4-methoxybenzyl)amino-6-cyano-1-[methyl(2-pyridylmethyl)amino]phthalazine Dihydrochloride] | 0.03
COc1ccc(CNc2nnc(-c3ccccn3)c3ccc(C#N)cc23)cc1Cl [Example 2, 4-(3-Chloro-4-methoxybenzyl)amino-6-cyano-1-(2-pyridyl)phthalazine Dihydrochloride] | 0.3
COc1ccc(CNc2nnc(N3CCC(O)CC3)c3ccc(-n4cccn4)cc23)cc1Cl [Example 105, 1-[4-[(3-Chloro-4-methoxybenzyl)amino]-6-(1H-1-pyrazolyl)-1-phthalazinyl]-4-piperidinol Hydrochloride] | 0.1
COc1ccc(CNc2nnc(N3CCC(=NO)CC3)c3ccc(C#N)cc23)cc1Cl [Example 50, 4-[(3-Chloro-4-methoxybenzyl)amino]-1-(4-hydroxyiminopiperidino)-6-phthalazinecarbonitrile Hydrochloride] | 0.24
COc1ccc(CNc2nnc(N3[C@@H]4CC[C@H]3C[C@@H](O)C4)c3ccc(C#N)cc23)cc1Cl [Example 52, (endo)-4-[(3-Chloro-4-methoxybenzyl)amino]-1-(3-hydroxy-8-azabicyclo[3.2.1]oct-8-yl)-6-phthalazinecarbonitrile Hydrochloride] | 0.2
COc1ccc(CNc2nnc(N3CCC4(CC3)COC(=O)C4)c3ccc(C#N)cc23)cc1Cl [Example 11, 4-[(3-Chloro-4-methoxybenzyl)amino]-1-(3-oxo-2-oxa-8-azaspiro[4.5]dece-8-yl)-6-phthalazine Carbonitrile] | 0.68
COc1ccc(CCNc2nnc(N3CCCC(CO)C3)c3ccc(C#N)cc23)cc1Cl (centres unmarked) [Production Example 5, 4-(3-Chloro-4-methoxyphenethyl)amino-6-cyano-1-(3-hydroxymethylpiperidino)phthalazine Hydrochloride] | 0.23
COc1ccc(CNc2nnc(N3CCC4(CC3)CC(=O)C4)c3ccc(C#N)cc23)cc1Cl [Example 12, 4-[(3-Chloro-4-methoxybenzyl)amino]-1-(2-oxo-7-azaspiro[3.5]non-7-yl)-6-phthalazine Carbonitrile] | 0.54
COc1ccc(CNc2nnc(C#CC(C)(C)N)c3ccc(C#N)cc23)cc1Cl [Example 25, 1-(3-Amino-3-methyl-1-butynyl)-4-[(3-chloro-4-methoxybenzyl)amino]-6-phthalazinecarbonitrile Hydrochloride] | 0.16
COc1ccc(CNc2nnc(N(C)CCc3ccccn3)c3ccc(C#N)cc23)cc1Cl [Production Example 8, 4-(3-Chloro-4-methoxybenzyl)amino-6-cyano-1-{N-methyl-[2-(2-pyridyl)ethyl]amino}phthalazine Dihydrochloride] | 0.47
CO/N=C/c1ccc2c(N3CCC(O)CC3)nnc(NCc3ccc(OC)c(Cl)c3)c2c1 [Example 110, 4-[(3-Chloro-4-methoxybenzyl)amino]-1-(4-hydroxypiperidino)-6-phthalazinecarbaldehyde O6-Methyloxime Hydrochloride] | 0.66
COc1ccc(CCNc2nnc(N3CCC(C#N)CC3)c3ccc(C#N)cc23)cc1Cl [Example 4, 4-(3-Chloro-4-methoxyphenethyl)amino-6-cyano-1-(4-cyanopiperidino)phthalazine Hydrochloride] | 0.51
COc1ccc(CNc2nnc(-c3cccnc3)c3ccc(C#N)cc23)cc1Cl [Example 1, 4-(3-Chloro-4-methoxybenzyl)amino-6-cyano-1-(3-pyridyl)phthalazine Dihydrochloride] | 0.78

Next, values leading:

IC50 [nM] | SMILES
0.72 | COc1ccc(CNc2nnc(N3CCC[C@H]3CO)c3ccc(C#N)cc23)cc1Cl [Production Example 3, 4-(3-Chloro-4-methoxybenzyl)amino-6-cyano-1-[(2S)-2-hydroxymethylpyrrolidino]phthalazine Hydrochloride]
0.12 | COc1ccc(CNc2nnc(N3[C@@H]4CC[C@H]3C[C@@H](O)C4)c3ccc(C#N)cc23)cc1Br [Example 85, (endo)-4-[(3-Bromo-4-methoxybenzyl)amino]-1-(3-hydroxy-8-azabicyclo[3.2.1]octo-8-yl)-6-phthalazine Carbonitrile]
0.23 | COc1ccc(CNc2nnc(N3CCC(F)(CO)CC3)c3ccc(C#N)cc23)cc1Cl [Example 43, 4-[(3-Chloro-4-methoxybenzyl)amino]-1-[4-fluoro-4-(hydroxymethyl)piperidino]-6-phthalazinecarbonitrile Hydrochloride]
0.19 | COc1ccc(CNc2nnc(N3CCCC(CO)C3)c3ccc(C#N)cc23)cc1Cl (centres unmarked) [Production Example 4, 4-(3-Chloro-4-methoxybenzyl)amino-6-cyano-1-(3-hydroxymethylpiperidino)phthalazine Hydrochloride]
0.5 | COc1ccc(CCNc2nnc(N3CCC(CO)CC3)c3ccc(C#N)cc23)cc1Cl [Production Example 6, 4-(3-Chloro-4-methoxyphenethyl)amino-6-cyano-1-(4-hydroxymethylpiperidino)phthalazine]
0.27 | COc1ccc(CNc2nnc(N3CC[C@H](CO)C3)c3ccc(C#N)cc23)cc1Br [Example 79, 4-[(3-Bromo-4-methoxybenzyl)amino]-1-[(3S)-3-(hydroxymethyl)tetrahydro-1H-1-pyrrolyl]-6-phthalazinecarbonitrile Hydrochloride]
0.93 | COc1ccc(CNc2nnc(N3CCC(CO)CC3)c3ccc(C#N)cc23)cc1Br [Example 84, 4-[(3-Bromo-4-methoxybenzyl)amino]-1-[4-(hydroxymethyl)piperidino]-6-phthalazinecarbonitrile Hydrochloride]
0.09 | COc1ccc(CNc2nnc(N3CCC[C@@H](O)C3)c3ccc(C#N)cc23)cc1Cl [Production Example 1, 4-(3-Chloro-4-methoxybenzyl)amino-6-cyano-1-[(3R)-3-hydroxypiperidino]phthalazine Hydrochloride]
0.051 | COc1ccc(CNc2nnc(N3CCC(N)CC3)c3ccc(C#N)cc23)cc1Cl [Example 5, 1-(4-Aminopiperidino)-4-(3-chloro-4-methoxybenzyl)amino-6-cyanophthalazine Dihydrochloride]
0.13 | COc1ccc(CNc2nnc(N3CCC(O)CC3)c3ccc(C#N)cc23)cc1I [Example 76, 1-(4-Hydroxypiperidino)-4-[(3-iodo-4-methoxybenzyl)amino]-6-phthalazinecarbonitrile Hydrochloride]
0.98 | COc1ccc(CNc2nnc(N3CCC(O)(CO)CC3)c3ccc(C#N)cc23)cc1Cl [Example 6, 4-(3-Chloro-4-methoxybenzyl)amino-6-cyano-1-[4-hydroxy-4-(hydroxymethyl)piperidino]phthalazine Hydrochloride]
0.24 | COc1ccc(CNc2nnc(N3CCC(O)C(C)C3)c3ccc(C#N)cc23)cc1Cl (centres unmarked) [Production Example 11, 4-[(3-Chloro-4-methoxybenzyl)amino]-1-(4-hydroxy-3-methylpiperidino)-6-phthalazinecarbonitrile Hydrochloride]
1.1 | COc1ccc(CNc2nnc(N3CCC(C#N)CC3)c3ccc(C#N)cc23)cc1Cl [Example 3, 4-(3-Chloro-4-methoxybenzyl)amino-6-cyano-1-(4-cyanopiperidino)phthalazine Hydrochloride]
